Test results: US20170296505A1, “LONG-CHAIN CARBOXYCHROMANOLS AND ANALOGS FOR USE AS ANTI-INFLAMMATORY AGENTS” (Purdue Research Foundation, priority 2008, published 2017)
Read-outs that look alike come from different tables or passages of the source.

Columns and labels:
COX-2 [1] = target: T1, COX-2 (Homo sapiens, UniProt P35354); test: COX-2 activity assay using purified enzyme; type: biochemical; set-up: purchased Cayman Chemicals (Ann Arbor, Mich.); details: at 250 μM
T1 sequence (P35354 18-604): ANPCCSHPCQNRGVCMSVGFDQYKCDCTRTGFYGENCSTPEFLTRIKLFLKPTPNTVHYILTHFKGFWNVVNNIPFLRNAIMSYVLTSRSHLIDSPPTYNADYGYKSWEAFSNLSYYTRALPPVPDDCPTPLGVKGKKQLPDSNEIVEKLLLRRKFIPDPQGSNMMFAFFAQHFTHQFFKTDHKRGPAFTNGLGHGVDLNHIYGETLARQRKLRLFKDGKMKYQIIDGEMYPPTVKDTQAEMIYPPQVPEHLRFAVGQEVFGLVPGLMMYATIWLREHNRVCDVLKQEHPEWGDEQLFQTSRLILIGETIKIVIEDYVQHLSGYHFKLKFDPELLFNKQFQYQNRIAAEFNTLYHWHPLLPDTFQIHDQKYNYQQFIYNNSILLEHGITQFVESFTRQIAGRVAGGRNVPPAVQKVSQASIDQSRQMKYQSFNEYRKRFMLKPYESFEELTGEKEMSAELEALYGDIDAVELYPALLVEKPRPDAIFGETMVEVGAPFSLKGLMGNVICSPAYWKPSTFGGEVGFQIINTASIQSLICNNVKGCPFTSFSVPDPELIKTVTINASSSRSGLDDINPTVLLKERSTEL
Experimental: (§1) COX-1 and COX -2 activity assay using purified enzymes—The enzymatic reactions were performed in 0.1M Tris (pH 8.0), in the presence of 5 mM EDTA, 2 mM phenol, and 1 μM heme. […] Enzymatic reactions were initiated by addition of AA at a final concentration of 5 μM for 2 min. The reaction was stopped by addition of 0.1 M HCl. Stannous chloride in 0.1 M HCl was then added to reduce PGG2 and PGH2 to PGF2a. After addition of 0.5 vol of […] NaCl, prostaglandins formed in the reaction were extracted using 2.5 vol of ethyl acetate and the organic layer was completely dried under N2. PGF2a, and PGE2 were quantified using ELISA assays from Cayman Chemicals.

ovine COX-1 = target: T2, ovine COX-1 (Ovis aries, UniProt P05979); test: COX-1 activity assay using purified enzyme; type: biochemical
T2 construct: purchased Cayman Chemicals (Ann Arbor, Mich.)
T2 sequence (P05979 25-600): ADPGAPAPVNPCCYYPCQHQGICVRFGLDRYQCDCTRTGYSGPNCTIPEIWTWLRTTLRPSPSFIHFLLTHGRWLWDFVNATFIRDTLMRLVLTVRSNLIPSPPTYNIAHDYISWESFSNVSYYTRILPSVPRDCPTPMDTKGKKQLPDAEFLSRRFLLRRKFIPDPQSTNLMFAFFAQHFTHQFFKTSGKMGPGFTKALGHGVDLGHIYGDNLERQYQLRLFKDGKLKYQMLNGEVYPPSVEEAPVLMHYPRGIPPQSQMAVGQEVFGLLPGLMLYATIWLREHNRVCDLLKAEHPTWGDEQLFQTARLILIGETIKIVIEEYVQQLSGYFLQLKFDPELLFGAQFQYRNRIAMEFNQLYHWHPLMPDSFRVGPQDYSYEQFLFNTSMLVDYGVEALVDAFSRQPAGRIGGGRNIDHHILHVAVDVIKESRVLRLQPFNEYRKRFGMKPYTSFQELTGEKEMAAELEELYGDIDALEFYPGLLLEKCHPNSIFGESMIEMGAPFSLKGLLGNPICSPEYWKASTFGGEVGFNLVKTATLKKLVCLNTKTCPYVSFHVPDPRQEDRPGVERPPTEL
Experimental: as §1

[2] = tested on: PGE2 in IL-1β treated A549 cells; test: PGE2 generation during chronic IL-1β treatment; type: cell-based, human; details: for IC50: read-out: concentration to cause 50% inhibition of PGE2, in the presence of exogenous AA (5 μM, 5 min) after co-incubation with IL-1β
Experimental: (§2) A549 cells were pre-incubated with different concentrations of tocopherols in the presence or absence of 1 μM sesamin for 15 h, and then treated with IL-1β (2 ng/mL) for 24 h. PGE2 in the cell-culture media was measured by ELISA assays. Results are the averages of three independent experiments and expressed as Mean±SEM.
as §2, with “tocotrienols” for “tocopherols”
PGE2 generation during chronic IL-1β treatment—2.5−3×10^5 A549 cells per well were seeded in RPMI-1640 with 10% of FBS and allowed to attach overnight in a 24-well plate. Vitamin E stock solutions were initially made in DMSO and then diluted in 10 mg/mL of bovine serum albumin. Confluent cells were incubated in DMEM containing 1% FBS with DMSO (control) or vitamin E forms for 14-16 h and then 2 ng/ml of IL-1β was introduced for 24 hours. The medium was then collected and PGE2 accumulation was measured using ELISA assay from Cayman Chemicals (Ann Arbor, Mich.).
Statistical analysis—The unpaired student's t-test was used in the statistical analysis. All results are expressed as mean±SD. Activation of human lung epithelial A549 cells by IL-1β leads to a strong up-regulation of COX-2 protein expression and almost 100-fold increase of PGE2 generation. This cellular system has been employed to evaluate inhibitory potency of anti-inflammatory drugs, including COX inhibitors and was previously used by us to study the effect of α-T, γ-T and γ-CEHC on PGE2 formation (13, 20). […] Inhibition of PGE2 by γ-T, and γ-TE was also observed in the presence of exogenous AA, where after co-incubated with vitamin E forms and IL-1β, cells were incubated with fresh media containing 5 μM of AA for 5 min.

[3] = tested on: IL-1beta-stimulated PGE2 formation in A549 cells; test: IL-1beta-stimulated PGE2 formation with or without sesamin (Table 4); type: cell-based, human; details: IL-1beta 2 ng/ml, 8 h; 13′-COOH 2.5 uM, sesamin 1 uM
Experimental: Briefly, A549 cells were stimulated with IL-1beta (2 ng/ml) in the presence of DMSO (ctrl, 0.1%), control with sesamin (1 uM), 13′-COOH (structure 1) at 2.5 uM, 13′-COOH with sesamin (1 uM). Basal control was cells incubated with medium without IL-1beta. Eight hours later, media were collected and PGE2 was measured by ELISA.

A549 cells [4] = test: Metabolites of vitamin E forms in A549 conditioned media (HPLC); type: in vitro ADME, human; details: 20 μM
Experimental: FIG. 3A illustrates that unconjugated long-chain carboxychromanols but not sulfated derivatives inhibited COX-2 activity in intact cells. […] Sulfated metabolites were the sum of 9′S, 11′S and 13′S, and unconjugated metabolites are the sum of 9′, 11′ and 13′. Conditioned media were obtained by incubation of A549 cells with γ-TE at 20 μM for 24, 48 and 72 h. Metabolites were extracted and measured using HPLC assay. The conditioned media were then used for the activity assay as described in FIG. 2A and 2B. Unsulfated/sulfated is the ratio of the sum of 9′, 11′ and 13′ to that of 9′S, 11′S and 13′S. All the results are expressed as Mean±SD. […]
Quantitation of vitamin E metabolites in conditioned media—Long-chain carboxychromanols and their sulfated counterparts were quantitated by a HPLC assay with fluorescent detection (17). […]
Extracted metabolites were separated using HPLC and detected by a Shimadzu RF-10AXL spectrofluorometric detector (Shimadzu, Columbia, Md.) with the excitation and emission wavelength at 292 nm and 327 nm, respectively. […] Long-chain metabolites were quantified using tocopherols as the external standards with a correction factor based on the linear relationship between fluorescent intensity and solvent content (17).

A549 cells [5] = test: Cell viability of confluent A549 cells (MTT); type: cell-based, human; details: 100% confluent cells, 1% FBS
COX-2 [6] = target: T1, COX-2; test: COX-2 inhibition with purified human enzyme (Table 3); type: biochemical; set-up: A549 cells were pre-treated with 0.5-1 ng/mL of IL-1β- for 6 hours to induce COX-2 expression; endogenous in cells; details: mean±SEM
Source text: Free radical biology & medicine 95, 190-199. Results are mean±SEM based on four or more independent experiments.

5-LOX = target: T3, 5-LOX (Homo sapiens, UniProt P09917); test: 5-LOX inhibition with purified human enzyme (Table 3); type: biochemical; details: mean±SEM
T3 sequence (P09917 1-674): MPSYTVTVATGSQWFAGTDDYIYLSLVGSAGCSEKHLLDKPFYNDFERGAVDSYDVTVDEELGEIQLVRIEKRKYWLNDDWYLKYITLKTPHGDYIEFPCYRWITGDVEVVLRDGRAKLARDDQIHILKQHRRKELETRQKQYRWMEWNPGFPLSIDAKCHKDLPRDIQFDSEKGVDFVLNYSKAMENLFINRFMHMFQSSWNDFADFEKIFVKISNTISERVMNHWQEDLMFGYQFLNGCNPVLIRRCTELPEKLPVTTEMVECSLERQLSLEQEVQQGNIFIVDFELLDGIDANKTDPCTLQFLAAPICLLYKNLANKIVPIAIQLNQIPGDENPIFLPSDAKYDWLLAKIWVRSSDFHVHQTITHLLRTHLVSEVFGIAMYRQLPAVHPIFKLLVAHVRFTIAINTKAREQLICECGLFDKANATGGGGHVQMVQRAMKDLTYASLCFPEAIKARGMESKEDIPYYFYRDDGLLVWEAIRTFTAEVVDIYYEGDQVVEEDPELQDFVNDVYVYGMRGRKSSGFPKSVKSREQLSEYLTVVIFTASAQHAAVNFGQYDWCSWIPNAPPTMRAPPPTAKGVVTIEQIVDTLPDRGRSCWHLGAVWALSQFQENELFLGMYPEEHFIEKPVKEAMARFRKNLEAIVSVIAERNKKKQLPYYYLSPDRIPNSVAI
Source text: Results are mean±SEM based on four or more independent experiments.

[7] = LC-MS analysis of fecal samples of mice fed δTE-13′; type: in vivo; details: mice fed with δTE-13′
Source text: FIG. 6. Detection of δTE-13′-1 in fecal samples.

CC(=O)Nc1ccc(O)cc1 [Acetaminophen, reference compound]
inhibition of COX-2 (COX-2 [1]): did not significantly inhibit | inhibition of COX-1 (ovine COX-1; at 250 μM): did not significantly inhibit | IC50 COX-1 (ovine COX-1; purified enzyme, Not inhibit: 9′ at 20 μM, acetaminophen at 250 μM): Not inhibit*

c1cc2c(cc1[C@H]1OC[C@H]3[C@@H]1CO[C@@H]3c1ccc3c(c1)OCO3)OCO2 [sesamin, reference compound]
effect on PGE2 generation ([2]; sesamin alone at 1 μM): did not affect | PGE2 [3]: 12.46 ± 1.4 ng/mL

CC(C)=CCC/C(C)=C/CC/C(C)=C/CC[C@]1(C)CCc2c(C)c(O)c(C)c(C)c2O1 [α-TE, α-Tocotrienol]
inhibition of PGE2 formation ([2]; at 20 μM, A549 cells co-treated with IL-1β): 20%

CC(C)=CCC/C(C)=C/CC/C(C)=C/CC[C@]1(C)CCc2cc(O)c(C)c(C)c2O1 [γ-TE, γ-tocotrienol]
share of metabolites that are sulfated carboxychromanols (A549 cells [4]; 72-h incubation): more than 85% | share of metabolites that are unconjugated carboxychromanols (A549 cells [4]; first 24-h incubation): 90% | cell viability (MTT, cell morphology) (A549 cells [5]; 20 μM): did not show significant effects | effect of sesamin on the inhibitory potency on PGE2 ([2]; in the presence of 1 μM sesamin): moderately diminished | IC50 [2]: 10 µM

Cc1c(O)cc2c(c1C)OC(C)(CCCC(C)CCCC(C)CCCC(C)C)CC2 (centres unmarked) [γ-T]
cell viability (MTT, cell morphology) (A549 cells [5]; 25-50 μM): did not show significant effects | IC50 ([2]; Homo sapiens, A549, 5 min): 25 µM | IC50 (COX-2 [6]): > 50 µM | IC50 (5-LOX): > 50 µM

Cc1cc(O)cc2c1OC(C)(CCCC(C)CCCC(C)CCCC(C)C)CC2 (centres unmarked) [δ-T]
cell viability (MTT, cell morphology) (A549 cells [5]; 25-50 μM): did not show significant effects | IC50 ([2]; Homo sapiens, A549, 5 min): 10 µM | IC50 (COX-2 [6]): > 50 µM | IC50 (5-LOX): > 50 µM

C/C(=C\CCC1(C)CCc2cc(O)cc(C)c2O1)CC/C=C(\C)CCCC(C)C(=O)O (centres unmarked) [δTE-13′-1]
formation in fecal samples [7]: detected
